Experimental data as given in article PMC11940147, “Copper Hexacyanoferrates Obtained via Flavocytochrome b2 Assistance: Characterization and Application” (Biosensors, 2025).

Columns and labels:
[1] = system: T1, L-arginine oxidase (ArgO); assay: colorimetric H2O2 detection with gCuHCF and o-dianisidine, Lineweaver-Burke; type: biochemical, Amanita phalloides; conditions: enzyme in solution; coupled to gCuHCF peroxidase mimic
T1 construct: native, purified from the mushroom by the authors' method
Source text: colorimetric H2O2 detection with gCuHCF and o-dianisidine, Lineweaver-Burke on L-arginine oxidase (ArgO) | kinetic constants of ArgO in the ArgO/gCuHCF/o-DZ method with respect to Arg

[2] = biological target: T2, flavocytochrome b2 (Fcb2) (Ogataea polymorpha, UniProt A0A9P8PNE1); assay: cyclic voltammetry and chronoamperometry, Fcb2 in gCuHCF on graphite electrode; type: biochemical
T2 construct: gene OGATHE_001663
T2 sequence (A0A9P8PNE1 55-553): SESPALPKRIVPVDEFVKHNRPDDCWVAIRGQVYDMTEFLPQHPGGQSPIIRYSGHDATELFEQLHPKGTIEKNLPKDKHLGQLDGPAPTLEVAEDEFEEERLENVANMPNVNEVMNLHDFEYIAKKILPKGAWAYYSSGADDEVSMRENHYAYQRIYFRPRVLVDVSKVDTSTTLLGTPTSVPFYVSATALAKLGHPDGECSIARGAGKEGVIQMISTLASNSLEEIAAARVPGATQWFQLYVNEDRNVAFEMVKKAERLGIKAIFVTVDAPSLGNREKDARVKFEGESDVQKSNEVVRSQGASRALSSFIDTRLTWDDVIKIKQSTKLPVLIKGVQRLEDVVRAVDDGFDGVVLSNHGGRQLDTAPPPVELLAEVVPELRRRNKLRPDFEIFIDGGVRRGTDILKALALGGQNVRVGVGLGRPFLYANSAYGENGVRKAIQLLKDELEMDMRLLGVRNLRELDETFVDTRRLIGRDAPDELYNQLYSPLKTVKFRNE

`N=C(N)NCCC[C@H](N)C(=O)O` [L-arginine] showed a Km [1] of 300 µM.
For `C[C@H](O)C(=O)O` [L-lactate], the “cyclic voltammetry and chronoamperometry, Fcb2 in gCuHCF on graphite electrode” value [2] was “current output on lactate addition correlates with Fcb2 activity in the sensing layer”.
